In this assay the target is T1, Aromatase (Rattus norvegicus, UniProt P22443).
T1 construct: Infantile weibliche Ratten reagieren auf PMSG (Pregnant Mare's Serum Gonadotropin)-Behandlung mit einheitlich erhöhter Steroidsynthese; from tissue; host or cells: living infantile female rats pretreated with PMSG
T1 sequence (P22443 1-508): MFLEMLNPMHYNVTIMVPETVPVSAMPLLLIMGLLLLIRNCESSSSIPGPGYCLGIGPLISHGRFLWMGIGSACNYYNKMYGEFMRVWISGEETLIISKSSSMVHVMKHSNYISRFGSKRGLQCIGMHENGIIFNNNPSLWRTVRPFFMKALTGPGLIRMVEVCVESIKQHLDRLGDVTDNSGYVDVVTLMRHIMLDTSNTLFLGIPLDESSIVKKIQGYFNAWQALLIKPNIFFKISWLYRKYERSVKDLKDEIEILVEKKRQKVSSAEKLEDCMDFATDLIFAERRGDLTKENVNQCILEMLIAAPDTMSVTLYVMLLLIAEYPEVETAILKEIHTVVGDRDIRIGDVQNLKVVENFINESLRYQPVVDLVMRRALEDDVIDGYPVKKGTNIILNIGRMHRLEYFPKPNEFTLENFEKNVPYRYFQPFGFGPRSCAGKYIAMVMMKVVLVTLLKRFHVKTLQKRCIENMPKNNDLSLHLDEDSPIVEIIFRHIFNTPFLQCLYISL
In words: PMSG test: effect on serum oestradiol concentration in PMSG-pretreated infantile female rats. To be noted: for Östradiol-Konzentration: peripheral serum, PMSG-pretreated rat, 24 h after last PMSG, mean ± SD; for Serum-östradiolkonzentration: in comparison with A and B. In kind it is in vivo, Ratte. The protocol: Infantile weibliche Ratten reagieren auf PMSG (Pregnant Mare's Serum Gonadotropin)-Behandlung mit einheitlich erhöhter Steroidsynthese. Die Aromataseaktivität kann durch die Beeinflussung der PMSG-stimulierten Östrogenbildung gemessen werden.
Im sogenannten PMSG-Test werden 21 tage alte weibliche Ratten alle 2 Tage insgesamt 7 mal mit je 100 I.U. PMSG subkutan vorbehandelt. 1 Stunde vor und 8 Stunden nach der letzten PMSG-Applikation(d₁₂) erhalten die Tiere die Testsubstanz in 0,1 ml Benzylbenzoat/Rizinusöl (1+9) durch subkutane Injektion. Die Kontrolltiere erhalten nur das Vehikel. 24 Stunden nach der letzten PMSG-Applikation werden die Tiere getötet. Im serum wird Östradiol radioimmunologisch geprüft. Für jede Gruppe von Tieren wird der Mittelwert der Östradiolkonzentration in nMol/l mit der Standardabweichung errechnet. Die Signifikanzen der Unterschiede zur Kontrollgruppe werden durch die Varianzanalyse geprüft. Zur Ermittlung der relativen Wirkungsstärke der zu testenden Substanz im Vergleich zu der Standardsubstanz wird die Regressions- und Kovarianzanalyse durchgeführt. Ferner wird die prozentuale Hemmung gegen die PMSG-Kontrolle berechnet.

`C[C@]12CCC(=O)C(O)=C1CC[C@@H]1[C@@H]2CC[C@]2(C)C(=O)CC[C@@H]12` [A, 4-Hydroxy-4-androsten-3,17-dion, reference compound]: the Östradiol-Konzentration (Dosis 0,1 mg/Tier 2 x s.c.) is 3,98±1,12 nMol/l, the Östradiol-Konzentration (Dosis 0,3 mg/Tier 2 x s.c.) was 3,84±0,84 nMol/l and the Östradiol-Konzentration (Dosis 1,0 mg/Tier 2 x s.c.) is 1,94±0,62 nMol/l.

As to `CC(=O)OCC[C@H]1CC(=O)[C@@]2(C)CC[C@H]3[C@@H](CCC4=CC(=O)C=C(C)[C@@]43C)[C@H]12` [B, 15α-(Acetoxyethyl)-1-methyl-androsta-1,4-dien-3,17-dion, reference compound], the Östradiol-Konzentration runs as follows: (Dosis 0,1 mg/Tier 2 x s.c.) 2,11±0,39 nMol/l; (Dosis 0,3 mg/Tier 2 x s.c.) 0,62±0,13 nMol/l; (Dosis 1,0 mg/Tier 2 x s.c.) 0,54±0,07 nMol/l.

Regarding `CC(=O)O[C@H]([C@H]1CC(=O)[C@@]2(C)CC[C@H]3[C@@H](CCC4=CC(=O)C=C(C)[C@@]43C)[C@H]12)[C@H](C)OC(C)=O` [C, 15α-(1R,2S-Diacetoxypropyl)-1-methyl-androsta-1,4-dien-3,17-dion], the Serum-östradiolkonzentration entry is “stärker gesenkt”. The Östradiol-Konzentration (Dosis 0,1 mg/Tier 2 x s.c.) is given as 1,30±0,37 nMol/l. The Östradiol-Konzentration (Dosis 0,3 mg/Tier 2 x s.c.) is 0,68±0,32 nMol/l. Moreover, the Östradiol-Konzentration (Dosis 1,0 mg/Tier 2 x s.c.) is on record as 0,24±0,10 nMol/l.

In the case of `CC[C@H](OC(C)=O)[C@H](OC(C)=O)[C@H]1CC(=O)[C@@]2(C)CC[C@H]3[C@@H](CCC4=CC(=O)C=C(C)[C@@]43C)[C@H]12` [D, 15α-(1R,2S-Diacetoxybutyl)-1-methyl-androsta-1,4-dien-3,17-dion], the Serum-östradiolkonzentration entry is reported as “stärker gesenkt”. The Östradiol-Konzentration (Dosis 0,1 mg/Tier 2 x s.c.) is given as 0,54±0,11 nMol/l. For the same molecule, the Östradiol-Konzentration (Dosis 0,3 mg/Tier 2 x s.c.) was 0,88±0,15 nMol/l. Moreover, where the note is “Dosis 1,0 mg/Tier 2 x s.c.”, the Östradiol-Konzentration is recorded as 0,41±0,09 nMol/l.
